18 molecules from US20090004185A1, “AMINO-SUBSTITUTED QUINAZOLINE DERIVATIVES AS INHIBITORS OF BETA-CATENIN/TCF-4 PATHWAY AND CANCER TREATMENT AGENTS” (WYETH, priority 2007, published 2009) can be followed below.

Each structure is given as a SMILES string.

For one data set, the system named is β-catenin/Tcf-4. Kind of data set: cells. It counts as cell-based. Particulars: Homo sapiens, 24 hours of incubation with compound, ratio Firefly/Renilla luciferase. A digest of the protocol: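 SW480-derived lines with integrated reporters (Tcf-4-driven firefly luciferase; SV40 firefly as specificity control; SV40 Renilla for cell number/toxicity), treated 24 hours with titrated compounds, final 0.316% DMSO. Dual-luciferase read-out; firefly/Renilla ratio as % of control, duplicate plates, IC50 (nM) from curve fit.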

Another data set concerns SV40-Luc. Kind of data set: SV40-Luc control luciferase reporter assay, SV 5A8 cell line (SV40-Luc and SV40-R-Luc), control for non-specific inhibitors. It counts as cell-based, human. The settings on record: Homo sapiens, SV5A8, 24 h, SV 5A8 cells derived from SW480; 24 hours of incubation with compound; ratio Firefly/Renilla luciferase. A digest of the protocol:
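Cells were plated and, 20-24 hours later, treated with titrated compound (0.316% DMSO final). After 24 hours they were lysed or given Dual-Glo reagent, and firefly then Renilla luminescence was measured. IC50s came from firefly/Renilla ratios as % of control.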
A general note: In a reporter assay the amount or activity of a reporter protein is the signal.

Where [1] appears, read: SW480, 24 h, Tcf 33.13 cells derived from SW480.
Where [2] appears, read: Tcf22C11, 24 h, Tcf 22C11 cells derived from SW480.

As usually defined, the IC50 is the concentration that gives 50% inhibition. One may read the melting point as the temperature of the solid-liquid transition. Molecule `CC(C)(C)OC(=O)CNc1nc(NCc2ccc(NC(=O)c3ccc(F)cc3)cc2)c2ccccc2n1` [Example 126, tert-butyl N-[4-({4-[(4-fluorobenzoyl)amino]benzyl}amino)quinazolin-2-yl]glycinate] came in with a melting point of 96 °C. Besides, in the data set with β-catenin/Tcf-4 (setting [1]), the IC50 turned out to be 1070 nM. Also, the IC50 in the data set on β-catenin/Tcf-4 (setting [2]) came to 1720 nM. In addition, the IC50 in the data set with SV40-Luc is above 2490 nM.

`CCNc1nc(NCc2ccc(NC(=O)C3CCN(Cc4ccccc4)CC3)cc2)c2ccc(C)cc2n1` [Example 132, 1-benzyl-N-[4-({[2-(ethylamino)-7-methylquinazolin-4-yl]amino}methyl)phenyl]piperidine-4-carboxamide]: the melting point is 55 °C. The IC50 in the data set with β-catenin/Tcf-4 (setting [1]) came to 1140 nM. Further, the IC50 in the data set on β-catenin/Tcf-4 (setting [2]) is 1390 nM. Besides, the IC50 with SV40-Luc was above 2150 nM.

Turning to `CNc1nc(NCc2ccc(NC(=O)c3ccc(Cl)nc3)cc2)c2cc([N+](=O)[O-])ccc2n1` [Example 184, 6-chloro-N-[4-({[2-(methylamino)-6-nitroquinazolin-4-yl]amino}methyl)phenyl]nicotinamide], the melting point was in the range of 305 to 307 °C. For the same molecule, the IC50 with β-catenin/Tcf-4 (setting [1]) is above 21600 nM. Besides, the IC50 in the data set with β-catenin/Tcf-4 (setting [2]) is above 21600 nM. The IC50 with SV40-Luc was above 21600 nM.

For the molecule `C/C=C/c1ccc2c(NCc3ccc(NC(=O)C4CCN(Cc5ccccc5)CC4)cc3)nc(N(C)C)nc2c1` [Example 151, 1-benzyl-N-{4-[({2-(dimethylamino)-7-[(1E)-prop-1-en-1-yl]quinazolin-4-yl}amino)methyl]phenyl}-piperidine-4-carboxamide], the melting point came to 154 °C. Moreover, the IC50 with β-catenin/Tcf-4 (setting [1]) was 726 nM. Also, the IC50 in the data set with β-catenin/Tcf-4 (setting [2]) came to 606 nM. In the data set on SV40-Luc, the IC50 is above 2530 nM.

Molecule `CNc1nc(NCc2ccc(NC(=O)c3ccc(Cl)cc3)cc2)c2cc(Br)cc(C)c2n1` [Example 66, N-[4-({[6-bromo-8-methyl-2-(methylamino)quinazolin-4-yl]amino}methyl)phenyl]-4-chlorobenzamide] returned a melting point of 139 °C. For the same molecule, the IC50 with β-catenin/Tcf-4 (setting [1]) is 649 nM. The IC50 in the data set with β-catenin/Tcf-4 (setting [2]) stood at 1010 nM. Moreover, in the data set on SV40-Luc, the IC50 was above 9790 nM.

For the molecule `Cc1ccc2c(NCc3ccc(NC(=O)C4CCN(Cc5ccccc5)CC4)cc3)nc(N3CCCC3)nc2c1` [Example 133, 1-benzyl-N-(4-{[(7-methyl-2-pyrrolidin-1-ylquinazolin-4-yl)amino]methyl}phenyl)piperidine-4-carboxamide], the melting point worked out at 96 °C. Besides, the IC50 in the data set on β-catenin/Tcf-4 (setting [1]) was 793 nM. For the same molecule, the IC50 with β-catenin/Tcf-4 (setting [2]) stood at 669 nM. Besides, the IC50 in the data set with SV40-Luc was above 9350 nM.

Molecule `Cc1ccc2c(NCc3ccc(NC(=O)C4CCN(Cc5ccc(C(F)(F)F)cc5)CC4)cc3)nc(N(C)C)nc2c1` [Example 256, N-[4-({[2-(dimethylamino)-7-methylquinazolin-4-yl]amino}methyl)phenyl]-1-[4-(trifluoromethyl)benzyl]piperidine-4-carboxamide] yielded a melting point of 126 to 128 °C. Further, in the data set on β-catenin/Tcf-4 (setting [1]), the IC50 was found to be 706 nM. The IC50 in the data set on β-catenin/Tcf-4 (setting [2]) amounted to 967 nM. In the data set with SV40-Luc, the IC50 was above 8670 nM.

The molecule `Cc1ccc2c(NCc3ccc(NC(=O)c4ccc(Cl)cc4)cc3)nc(N3CCCCCC3)nc2c1` [Example 198, N-(4-{[(2-azepan-1-yl-7-methylquinazolin-4-yl)amino]methyl}phenyl)-4-chlorobenzamide] had a melting point of 192 to 194 °C. Also, the IC50 with β-catenin/Tcf-4 (setting [1]) amounted to 253 nM. Also, the IC50 in the data set on β-catenin/Tcf-4 (setting [2]) was determined as 346 nM. Moreover, the IC50 in the data set with SV40-Luc was above 2500 nM.

The molecule `CNc1nc(NCc2ccc(NC(=O)c3ccc(C)nc3)cc2)c2ccc(C)cc2n1` [Example 240, 6-methyl-N-[4-({[7-methyl-2-(methylamino)quinazolin-4-yl]amino}methyl)phenyl]nicotinamide] returned a melting point of 257 to 259 °C. For the same molecule, in the data set with β-catenin/Tcf-4 (setting [1]), the IC50 amounted to 793 nM. Moreover, the IC50 in the data set with β-catenin/Tcf-4 (setting [2]) was found to be 900 nM. The IC50 with SV40-Luc was above 3030 nM.

For `O=C(Nc1ccc(CNc2nc(N3CCC3)nc3ccccc23)cc1)c1ccc(F)cc1` [Example 114, N-(4-{[(2-azetidin-1-ylquinazolin-4-yl)amino]methyl}phenyl)-4-fluorobenzamide], the melting point stood at 249 °C. In the data set on β-catenin/Tcf-4 (setting [1]), the IC50 turned out to be 587 nM. Besides, the IC50 in the data set with β-catenin/Tcf-4 (setting [2]) stood at 870 nM. In addition, the IC50 in the data set with SV40-Luc is above 5850 nM.

`C=Cc1ccc2c(NCc3ccc(NC(=O)C4CCN(Cc5ccccc5)CC4)cc3)nc(N(C)C)nc2c1` [Example 150, 1-benzyl-N-[4-({[2-(dimethylamino)-7-vinylquinazolin-4-yl]amino}methyl)phenyl]piperidine-4-carboxamide] had a melting point of 180 °C. Further, the IC50 in the data set with β-catenin/Tcf-4 (setting [1]) turned out to be 169 nM. For the same molecule, the IC50 in the data set on β-catenin/Tcf-4 (setting [2]) was 268 nM. Further, in the data set on SV40-Luc, the IC50 is above 2400 nM.

For the molecule `Cc1ccc2c(NCc3ccc(NC(=O)c4ccc(F)cc4)cc3)nc(NCCc3ccccn3)nc2c1` [Example 232, 4-fluoro-N-{4-[({7-methyl-2-[(2-pyridin-2-ylethyl)amino]quinazolin-4-yl}amino)methyl]phenyl}benzamide], the melting point was in the range of 112 to 115 °C. Moreover, in the data set with β-catenin/Tcf-4 (setting [1]), the IC50 was found to be 292 nM. Also, the IC50 in the data set with β-catenin/Tcf-4 (setting [2]) worked out at 408 nM. For the same molecule, in the data set on SV40-Luc, the IC50 is above 2470 nM.

In turn, `Cc1ccc2c(NCc3ccc(NC(=O)c4ccc(F)cc4)cc3)nc(N3CCCCCC3)nc2c1` [Example 235, N-(4-{[(2-azepan-1-yl-7-methylquinazolin-4-yl)amino]methyl}phenyl)-4-fluorobenzamide] came in with a melting point of 135 to 139 °C. The IC50 in the data set on β-catenin/Tcf-4 (setting [1]) was determined as 448 nM. For the same molecule, in the data set with β-catenin/Tcf-4 (setting [2]), the IC50 was 451 nM. Besides, the IC50 in the data set on SV40-Luc was above 5170 nM.

Molecule `Cc1ccc2c(NCc3ccc(NC(=O)C4CCN(Cc5ccc(F)c(F)c5)CC4)cc3)nc(N(C)C)nc2c1` [Example 255, 1-(3,4-difluorobenzyl)-N-[4-({[2-(dimethylamino)-7-methylquinazolin-4-yl]amino}methyl)phenyl]piperidine-4-carboxamide] yielded a melting point of 97 to 99 °C. Also, the IC50 in the data set with β-catenin/Tcf-4 (setting [1]) came to 106 nM. The IC50 with β-catenin/Tcf-4 (setting [2]) turned out to be 196 nM. The half-inhibitory concentration (IC50) in the data set on SV40-Luc was above 2300 nM.

Molecule `O=C(Nc1ccc(CNc2nc(NC3CC3)nc3ccccc23)cc1)c1ccc(F)cc1` [Example 121, N-[4-({[2-(cyclopropylamino)quinazolin-4-yl]amino}methyl)phenyl]-4-fluorobenzamide] gave a melting point of 189 °C. For the same molecule, the IC50 in the data set with β-catenin/Tcf-4 (setting [1]) is 1140 nM. Further, the IC50 with β-catenin/Tcf-4 (setting [2]) was determined as 1720 nM. The half-inhibitory concentration (IC50) in the data set on SV40-Luc was above 2920 nM.

Molecule `Cc1ccc2c(NCc3ccc(NC(=O)c4ccc(F)cc4)cc3)nc(NC3CCN(Cc4ccccc4)CC3)nc2c1` [Example 233, N-{4-[({2-[(1-benzylpiperidin-4-yl)amino]-7-methylquinazolin-4-yl}amino)methyl]phenyl}-4-fluorobenzamide] had a melting point of 135 to 138 °C. Besides, the IC50 in the data set on β-catenin/Tcf-4 (setting [1]) was above 2180 nM. For the same molecule, the IC50 with β-catenin/Tcf-4 (setting [2]) is above 4350 nM. Moreover, in the data set on SV40-Luc, the IC50 is above 4350 nM.

The molecule `CNc1nc(NCc2ccc(NC(=O)c3ccc(Br)cc3)cc2)c2ccc(C)cc2n1` [Example 238, 4-bromo-N-[4-({[7-methyl-2-(methylamino)quinazolin-4-yl]amino}methyl)phenyl]benzamide] showed a melting point of 295 to 298 °C. Also, the IC50 in the data set with β-catenin/Tcf-4 (setting [1]) was found to be 255 nM. The IC50 with β-catenin/Tcf-4 (setting [2]) amounted to 284 nM. In addition, in the data set on SV40-Luc, the IC50 was above 1310 nM.

`Cc1ccc2c(NCc3ccc(NC(=O)C4CCN(Cc5ccccc5)CC4)cc3)nc(N3CCCCCC3)nc2c1` [Example 131, N-(4-{[(2-azepan-1-yl-7-methylquinazolin-4-yl)amino]methyl}phenyl)-1-benzylpiperidine-4-carboxamide] gave a melting point of 66 °C. Besides, the IC50 with β-catenin/Tcf-4 (setting [1]) was 966 nM. Moreover, in the data set on β-catenin/Tcf-4 (setting [2]), the IC50 is 1040 nM. For the same molecule, in the data set on SV40-Luc, the IC50 is above 7870 nM.
